Series [1] relates to myeloperoxidase activity in mouse ear. The series is described as follows: Myeloperoxidase activity in AA-treated mouse ear tissue (PMN marker). Format: in vivo. The conditions noted are these: Table II. How it is done:
Myeloperoxidase activity in ear tissue was measured as a marker for the presence or absence of polymorphonuclear leukocytes (PMNs) (Barone et al., 1991, J. Neurosci. Res. 29:336-345). After measurement of ear thickness, ears were dissected from the mice and homogenized in 50 mM Tris-HCL, pH 7.4 at 4° C. to give a 10% (w/v) homogenate. Aliquots of the homogenate were used to determine the amount of myeloperoxidase activity present in the tissue using o-dianisidine (Sigma Chem Co., St. Louis Mo.) and hydrogen peroxide as substrates and monitoring chromophore generation at 460 nm (Barone et al., 1991, J. Neurosci. Res. 29:336-345).

Series [2] deals with neutrophils. In words: Neutrophil chemotaxis to interleukin-8. Format: cell-based. The conditions noted are these: 15 min pre-exposure; read at 1 hr; FIG. 5. How it is done: The ability of CT-112 (SEQ. ID NO: 1) to inhibit chemotaxis of neutrophils in response to a variety of agents was assessed using Neuroprobe chemotaxis chambers. For these assays, neutrophils were resuspended in Hank's balanced salt solution with Ca^2+ and Mg^2+ to give a 5×10^6 cells/ml suspension after the cells were labeled with 1',7'-bis(2-carboxyethyl)-5-(6)-carboxyfluorescein. The neutrophils were exposed to CT-112 (SEQ. ID NO: 1) for approximately 15 min prior to addition to the chemotaxis chambers. CT-112 (SEQ. ID NO: 1) was present in both the top and bottom of the chambers, and the chemoattractant, either f-Met-Leu-Phe, leukotriene B4 or interleukin-8, was added to the bottom of chamber. Cells which had migrated through the membrane were determined by fluorescence at 530 nm at 1 hr after initiation of the assay.

Series [3] concerns DNCB-induced delayed-type hypersensitivity. The series is described as follows: Delayed-type hypersensitivity to DNCB, ear thickness. Format: in vivo, mouse. How it is done: CT-112 (SEQ. ID NO: 1) was tested for its ability to modulate the immune response in a mouse model of delayed hypersensitivity (Filipp et al., 1984, Allergy, 39: 499-507; Diezel et al., 1989 J. Invest. Dermatol. 93:322-326). The mice used in this study were 8-wk old hairless females (Jackson Laboratories). The mice were sensitized to a contact allergen (1-chloro-2,4-dinitrobenzene, DNCB) by painting the dorsothoracic region twice daily for 5 consecutive days with 50 μl of 0.5% DNCB in 75% acetone:25% vegetable oil. The animals were allowed to rest for 24 hr prior to challenge with DNCB. On the sixth day after initiation of the sensitization treatments, the animals were challenged with 50 μl of DNCB solution applied to the left ear. After 24 hrs, the ear thickness was determined and compared to the unchallenged ear.
The treatment groups were as follows:
b) Prednisone (intraperitoneal injection of 25 mg/kg, 2 hr prior to challenge);
d) CT-112 (intraperitoneal injections of 60 mg/kg/injection at 3, 1, and 0.25 hr prior to challenge and 3, 6 and 21 hr post-challenge);
e) DMSO control (topical application of 50 μl at 3, 1 and 0.25 hr prior to challenge; and
f) CT-112 in DMSO (20 mg/ml, topical application of 50 μl at 3, 1, and 0.25 hr prior to challenge and 3, 6 and 21 hr post-challenge).

Series [4] relates to carrageenan-induced peritonitis. The series is described as follows: Carrageenan-induced peritonitis, LTB4 and PGE2 in peritoneal lavage fluid. Format: in vivo, mouse. Particulars: 60 mg/kg/day; 24 hr post-challenge. How it is done:
Mice (C57BL/6UAF, females, 12 weeks old) were implanted with Alzet mini pumps set to deliver 60 mg CT-112/kg/day. Six days post-implantation, the mice were challenged with an intraperitoneal injection of 0.3 ml of carrageenan in PBS (10 mg/ml). The peritoneal cavity was lavaged with 15 ml of Hank's Balanced Salt Solution (Ca^2+ - and Mg^2+ -free) at 24, 48 and 72 hr post-challenge. The lavage fluid was centrifuged (500 g, 5 min), fixed with LeukoStat fixative and stained with LeukoStat staining solution. The slides were analyzed under a microscope for the different types of inflammatory cells, such as macrophages, lymphocytes and neutrophils. At the 48-hr time point, 5 control mice were also lavaged. In a separate study, the peritoneal lavage fluid was analyzed for total leukotriene B4 (LTB4) and prostaglandin E2 (PGE2) content at 24 hr post-challenge (Griswold et al., 1991, Biochem. Pharmacol. 42(4):825-831).

A further series can be described thus: Acute toxicity in rats. Format: in vivo, rat. Particulars: rats, 100, 500 or 1,000 mg/kg. How it is done:
Rats were dosed with CT-112 (SEQ. ID NO: 1) at 100, 500 or 1,000 mg/kg. […] All rats returned to normal appearance the day after treatment.

The subject of series [5] is neutrophils. Format: cell-based. An excerpt: In addition, CT-112 (SEQ. ID NO: 1) was not cytotoxic to neutrophils, as determined by viability testing using trypan blue exclusion (FIG. 3).
Where [6] appears, read: ip 60 mg/kg/injection at 3, 1, 0.25 hr prior and 3, 6, 21 hr post-challenge.
[7] abbreviates: topical 50 μl of 20 mg/ml in DMSO at 3, 1, 0.25 hr prior and 3, 6, 21 hr post-challenge.

No end group written: not given here.

“TTSQVRPR [CT-112, octapeptide derived from platelet factor 4]”: the “Myeloperoxidase Activity” value is listed as 19.6 ± 15.6 μmole of chromophore formed/mi in series [1] (0.05 mg/animal/day minipump), 17.0 ± 9.6 μmole of chromophore formed/mi in series [1] (0.1 mg/animal/day minipump) and 14.7 ± 13.3 μmole of chromophore formed/mi in series [1] (1.0 mg/animal/day minipump). Moreover, in the series with neutrophils [2], the “chemotactic migration of neutrophils to interleukin-8” value is on record as “not to interleukin-8”. The “% Inhibition of Inflammation” value in series [3] (7-day pump, 60 mg/kg/24 hr) is listed as 79.7%; in series [3] (setting [6]), 68.4%; in series [3] (setting [7]) it was 18.2%. Moreover, the “Thickness Difference (Left-Right)” value in series [3] (7-day pump, 60 mg/kg/24 hr) amounted to 0.00087 ± 0.000398 in; in series [3] (setting [6]), 0.00169 ± 0.000643 in; in series [3] (setting [7]) it was 0.0035 ± 0.000408 in. Also, the “LTB4 (pg in peritoneal lavage)” value in series [4] was determined as 16.8 ± 11.5 pg. The “PGE2 (pg in peritoneal lavage)” value in series [4] was determined as 13.1 ± 6.9 pg. The lesions at necropsy entry in the series “Acute toxicity in rats” is “No lesions were visible at necropsy”. In addition, the “mean body weight and mean body weight gain vs control” value in “Acute toxicity in rats” is on record as “no statistical differences”. For the same sequence, in “Acute toxicity in rats” (several rats at 500 and 1,000 mg/kg, day of treatment), the clinical effects result is “Transient clinical effects (hypoactivity, hypersensitiviy, staggered gait, cyanosis and absence of righting reflex)”. Further, in the series on neutrophils [5], the “cytotoxicity to neutrophils (trypan blue exclusion)” value is recorded as “not cytotoxic”.

The values above are taken from patent publication US5776892A, “Anti-inflammatory peptides” (Curative Health Services, Inc., priority 1994, dated 1998).
